Paper PMC3317823, “Identification and characterization of a novel thermostable pyrethroid-hydrolyzing enzyme isolated through metagenomic approach” (Microbial Cell Factories, 2012)

Molecular target: Sys410 (uncultured bacterium, UniProt H9CDG2)
Test: spectrophotometric p-nitrophenol release at […] nm, Michaelis-Menten fit
Settings: pH 6.5, potassium phosphate 50 mM, 55°C, gum arabic and Triton X-100 in substrate solution

Sys410, sequence (H9CDG2 1-280 limits assumed): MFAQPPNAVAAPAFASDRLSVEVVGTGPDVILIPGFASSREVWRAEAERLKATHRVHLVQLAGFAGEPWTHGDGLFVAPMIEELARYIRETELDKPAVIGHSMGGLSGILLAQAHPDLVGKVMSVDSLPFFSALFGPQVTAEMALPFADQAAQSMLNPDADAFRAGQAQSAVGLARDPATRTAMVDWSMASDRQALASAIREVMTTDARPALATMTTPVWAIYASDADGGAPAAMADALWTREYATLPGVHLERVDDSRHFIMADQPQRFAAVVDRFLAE

Row | Km (paper labels caprylate as C6, chain length uncertain) | Km (paper labels caproate as C8, chain length uncertain) | SMILES
1 | 33.2 ± 2.1 µM | – | CCCCCCCC(=O)Oc1ccc([N+](=O)[O-])cc1 [C6, ρ-nitrophenyl caprylate]
2 | – | 57.6 ± 1.9 µM | CCCCCC(=O)Oc1ccc([N+](=O)[O-])cc1 [C8, ρ-nitrophenyl caproate]
